Measurements taken from patent US10222368B2 (priority 2012, dated 2019).

What was measured:
α7nAChR-FLNA complex [1] = target: T1, α7nAChR-FLNA complex (Homo sapiens, UniProt P21333); assay: Lymphocyte co-immunoprecipitation / Western blot; format: cell-based
T1 construct: To determine the levels of FLNA-α7nAChR, FLNA-TLR4 and α7nAChR-Aβ42 complexes in the lymphocytes; endogenous in cells; host or cells: lymphocytes from venous blood of AD patients and control subjects (ex vivo)
Procedure: (§4) To prepare lymphocytes, 7 ml of venous blood was collected into an EDTA-containing collecting tube or S-monovette (Sarstedt, Newton, N.C.). […] The lymphocytes were washed twice by mixing with 6 ml oxygenated Kreb's-Ringer followed by centrifugation at 250×g for 10 minutes and re-suspension. […] To store lymphocytes, the lymphocyte pellet was resuspended in 250 μl ice-cold oxygenated Kreb's-Ringer containing 10% glycerol, and stored at −20° C. for 1 hour before storage at −80° C.
(§5) In the case that frozen lymphocyte samples were used, a lymphocyte suspension was gradually thawed by storing at −20° C. for 1 hour after removal from −80° C. and then at thawed at 4° C.
The incubation was terminated by adding 1 ml ice-cold Ca^2+-free Kreb's-Ringer containing 0.5 mM EGTA/0.1 mM EDTA, protease and phosphatase inhibitors followed by centrifugation. The resultant lymphocyte pellet was homogenized in 0.25 ml ice-cold immunoprecipitation buffer. […]
The membranes were then washed 3 times (1 minutes each) with 0.1% Tween-20 containing PBS and then once with distilled water for 1 minutes. The immunoreactivity was detected by a chemiluminutesescent method (Supersignal chemiluminutesescent reagents−Pierce/Thermo), and visualized by immediate exposure to X-ray film for 10-30 seconds (depending on the intensity of the signal). Specific protein bands were quantified by densitometric scanning (GS-800 calibrated densitometer, Bio-Rad Laboratories).
The membranes were then washed 3 times (1 minutes each) with 0.1% Tween®-20-containing PBS and then once with distilled water for 1 minute. The immunoreactivity was detected by a chemiluminutesescent method (Supersignal chemiluminutesescent reagents—Pierce/Thermo), and visualized by immediate exposure to X-ray film for 10-30 seconds (depending on the intensity of the signal). Specific protein bands were quantified by densitometric scanning (GS-800 calibrated densitometer, Bio-Rad Laboratories). The data are expressed as the ratio of α7nAChR/FLNA, TLR4/FLNA or α7nAChR/β-Actin optical intensities (in arbitrary units).

Aβ42-α7nAChR complex = assay: Lymphocyte co-immunoprecipitation / Western blot; format: cell-based, human
Procedure: as §4, §5
The incubation was terminated by adding 1 ml ice-cold Ca^2+-free Kreb's-Ringer containing 0.5 mM EGTA/0.1 mM EDTA, protease and phosphatase inhibitors followed by centrifugation. […]
The membranes were then washed 3 times (1 minutes each) with 0.1% Tween-20 containing PBS and then once with distilled water for 1 minutes. The immunoreactivity was detected by a chemiluminutesescent method (Supersignal chemiluminutesescent reagents−Pierce/Thermo), and visualized by immediate exposure to X-ray film for 10-30 seconds (depending on the intensity of the signal). Specific protein bands were quantified by densitometric scanning (GS-800 calibrated densitometer, Bio-Rad Laboratories). […]

TLR4-FLNA complex = target: T2, TLR4-FLNA complex (Homo sapiens, UniProt P21333); assay: 96-well FITC-solid phase method in lymphocytes; format: cell-based; conditions: 1 nM C0105, 30 min; AD lymphocytes or Aβ42-treated control lymphocytes
T2 construct: To determine the levels of FLNA-α7nAChR, FLNA-TLR4 and α7nAChR-Aβ42 complexes in the lymphocytes; endogenous in cells; host or cells: lymphocytes from venous blood of AD patients and control subjects (ex vivo)
Description: (§1) FIG. 2 illustrates the utility of a 96-well FITC-solid phase assay method to assess, in lymphocytes from AD patients and control subjects, levels of 1) the FLNA-α7nAChR association 2) the FLNA-TLR4 association and 3) α7nAChR-Aβ42 complexes. The top two panels show α7nAChR and TLR4 levels detected using respective FITC-anti-α7nAChR or FITC-anti-TLR4 antibodies after capturing FLNA coupled to α7nAChR and TLR4, respectively, with an anti-FLNA antibody coated on the microtiter solid phase plate.
(§2) To prepare lymphocytes, 7 ml of venous blood was collected into an EDTA-containing collecting tube or S-monovette (Sarstedt). Collected blood (6 ml) was layered onto 6 ml of Histopaque®-1077 (Sigma) at 25° C., and the anticoagulated blood was centrifuged at 400×g for 30 minutes (25° C.) to yield plasma (top layer) and lymphocytes (opaque interface). The lymphocytes were washed twice by mixing with 6 ml of oxygenated K-R followed by centrifugation at 250×g for 10 minutes and resuspension. […]
(§3) After two 1-minute washes with 50 mM Tris HCl (pH 7.4), each well was incubated in 0.5 μg/well FITC-conjugated anti-mouse IgG (human and mouse absorbed) for 1 hour at 25° C. Plates were washed twice with 200 μl ice-cold Tris HCl, pH 7.4 and the residual FITC-Aβ42 signals were determined by multimode plate reader, DTX880 (Beckman).

α7nAChR-FLNA complex [2] = target: T1, α7nAChR-FLNA complex; assay: 96-well FITC-solid phase method in lymphocytes; format: cell-based; conditions: 1 nM C0105, 30 min; AD lymphocytes or Aβ42-treated control lymphocytes
Description: as §1, §2, §3

α7nAChR/FLNA complexes = target: T3, α7nAChR/FLNA complexes (Homo sapiens, UniProt P21333); assay: Protein A and Protein G capture plate assay in lymphocytes; format: cell-based; conditions: 1 nM
T3 construct: To determine the levels of FLNA-α7nAChR, FLNA-TLR4 and α7nAChR-Aβ42 complexes in the lymphocytes; endogenous in cells; host or cells: lymphocytes from venous blood of AD patients and control subjects (ex vivo)
Procedure: Each sample was assessed in duplicate.

α7nAChR-FLNA association = target: T4, α7nAChR-FLNA association (Rattus norvegicus, UniProt A0A8I5ZV49); assay: Rat frontal cortical synaptosomes treated with Aβ42, anti-FLNA immunoprecipitation / Western blot; format: cell-based; conditions: 1 or 10 nM compound, simultaneously or 10 min prior to 0.1 μM Aβ42
T4 construct: from tissue; host or cells: rat frontal cortical synaptosomes
Description: The α7nAChR-FLNA complexes in the solubilized synaptosomes were immunoprecipitated with immobilized anti-FLNA and the α7nAChR and FLNA levels in the anti-FLNA immunoprecipitates determined by Western blotting (FIG. 14A) and quantified by densitometry for illustrative compounds (FIG. 14B). n=3. […] The letter designation “M” that accompanies many of the “C-series” compounds is omitted from FIG. 14, the remaining figures and most discussions of the figures and compounds hereinafter for ease in expression. Structural formulas of the compounds used in this and the other figures are provided hereinafter.
The complexes in the solubilized synaptosomes, and α7nAChR, TLR4 and FLNA levels in the anti-FLNA immunoprecipitates were determined by Western blotting (FIG. 15A) in which numerals outside of and to the left of the blots are as discussed before. Amounts present in the blots were quantified by densitometry (FIG. 15B). […] Structural formulas of the compounds used in this and the other figures are provided hereinafter.

TLR4/FLNA complexes = TLR4/FLNA complexes (Homo sapiens, UniProt P21333); assay: Protein A and Protein G capture plate assay in lymphocytes; conditions: 1 nM
[3] = 1 nM C0105, lymphocytes of 10 YCI controls

T1 sequence (P21333 2-2647 limits assumed, one chain of several): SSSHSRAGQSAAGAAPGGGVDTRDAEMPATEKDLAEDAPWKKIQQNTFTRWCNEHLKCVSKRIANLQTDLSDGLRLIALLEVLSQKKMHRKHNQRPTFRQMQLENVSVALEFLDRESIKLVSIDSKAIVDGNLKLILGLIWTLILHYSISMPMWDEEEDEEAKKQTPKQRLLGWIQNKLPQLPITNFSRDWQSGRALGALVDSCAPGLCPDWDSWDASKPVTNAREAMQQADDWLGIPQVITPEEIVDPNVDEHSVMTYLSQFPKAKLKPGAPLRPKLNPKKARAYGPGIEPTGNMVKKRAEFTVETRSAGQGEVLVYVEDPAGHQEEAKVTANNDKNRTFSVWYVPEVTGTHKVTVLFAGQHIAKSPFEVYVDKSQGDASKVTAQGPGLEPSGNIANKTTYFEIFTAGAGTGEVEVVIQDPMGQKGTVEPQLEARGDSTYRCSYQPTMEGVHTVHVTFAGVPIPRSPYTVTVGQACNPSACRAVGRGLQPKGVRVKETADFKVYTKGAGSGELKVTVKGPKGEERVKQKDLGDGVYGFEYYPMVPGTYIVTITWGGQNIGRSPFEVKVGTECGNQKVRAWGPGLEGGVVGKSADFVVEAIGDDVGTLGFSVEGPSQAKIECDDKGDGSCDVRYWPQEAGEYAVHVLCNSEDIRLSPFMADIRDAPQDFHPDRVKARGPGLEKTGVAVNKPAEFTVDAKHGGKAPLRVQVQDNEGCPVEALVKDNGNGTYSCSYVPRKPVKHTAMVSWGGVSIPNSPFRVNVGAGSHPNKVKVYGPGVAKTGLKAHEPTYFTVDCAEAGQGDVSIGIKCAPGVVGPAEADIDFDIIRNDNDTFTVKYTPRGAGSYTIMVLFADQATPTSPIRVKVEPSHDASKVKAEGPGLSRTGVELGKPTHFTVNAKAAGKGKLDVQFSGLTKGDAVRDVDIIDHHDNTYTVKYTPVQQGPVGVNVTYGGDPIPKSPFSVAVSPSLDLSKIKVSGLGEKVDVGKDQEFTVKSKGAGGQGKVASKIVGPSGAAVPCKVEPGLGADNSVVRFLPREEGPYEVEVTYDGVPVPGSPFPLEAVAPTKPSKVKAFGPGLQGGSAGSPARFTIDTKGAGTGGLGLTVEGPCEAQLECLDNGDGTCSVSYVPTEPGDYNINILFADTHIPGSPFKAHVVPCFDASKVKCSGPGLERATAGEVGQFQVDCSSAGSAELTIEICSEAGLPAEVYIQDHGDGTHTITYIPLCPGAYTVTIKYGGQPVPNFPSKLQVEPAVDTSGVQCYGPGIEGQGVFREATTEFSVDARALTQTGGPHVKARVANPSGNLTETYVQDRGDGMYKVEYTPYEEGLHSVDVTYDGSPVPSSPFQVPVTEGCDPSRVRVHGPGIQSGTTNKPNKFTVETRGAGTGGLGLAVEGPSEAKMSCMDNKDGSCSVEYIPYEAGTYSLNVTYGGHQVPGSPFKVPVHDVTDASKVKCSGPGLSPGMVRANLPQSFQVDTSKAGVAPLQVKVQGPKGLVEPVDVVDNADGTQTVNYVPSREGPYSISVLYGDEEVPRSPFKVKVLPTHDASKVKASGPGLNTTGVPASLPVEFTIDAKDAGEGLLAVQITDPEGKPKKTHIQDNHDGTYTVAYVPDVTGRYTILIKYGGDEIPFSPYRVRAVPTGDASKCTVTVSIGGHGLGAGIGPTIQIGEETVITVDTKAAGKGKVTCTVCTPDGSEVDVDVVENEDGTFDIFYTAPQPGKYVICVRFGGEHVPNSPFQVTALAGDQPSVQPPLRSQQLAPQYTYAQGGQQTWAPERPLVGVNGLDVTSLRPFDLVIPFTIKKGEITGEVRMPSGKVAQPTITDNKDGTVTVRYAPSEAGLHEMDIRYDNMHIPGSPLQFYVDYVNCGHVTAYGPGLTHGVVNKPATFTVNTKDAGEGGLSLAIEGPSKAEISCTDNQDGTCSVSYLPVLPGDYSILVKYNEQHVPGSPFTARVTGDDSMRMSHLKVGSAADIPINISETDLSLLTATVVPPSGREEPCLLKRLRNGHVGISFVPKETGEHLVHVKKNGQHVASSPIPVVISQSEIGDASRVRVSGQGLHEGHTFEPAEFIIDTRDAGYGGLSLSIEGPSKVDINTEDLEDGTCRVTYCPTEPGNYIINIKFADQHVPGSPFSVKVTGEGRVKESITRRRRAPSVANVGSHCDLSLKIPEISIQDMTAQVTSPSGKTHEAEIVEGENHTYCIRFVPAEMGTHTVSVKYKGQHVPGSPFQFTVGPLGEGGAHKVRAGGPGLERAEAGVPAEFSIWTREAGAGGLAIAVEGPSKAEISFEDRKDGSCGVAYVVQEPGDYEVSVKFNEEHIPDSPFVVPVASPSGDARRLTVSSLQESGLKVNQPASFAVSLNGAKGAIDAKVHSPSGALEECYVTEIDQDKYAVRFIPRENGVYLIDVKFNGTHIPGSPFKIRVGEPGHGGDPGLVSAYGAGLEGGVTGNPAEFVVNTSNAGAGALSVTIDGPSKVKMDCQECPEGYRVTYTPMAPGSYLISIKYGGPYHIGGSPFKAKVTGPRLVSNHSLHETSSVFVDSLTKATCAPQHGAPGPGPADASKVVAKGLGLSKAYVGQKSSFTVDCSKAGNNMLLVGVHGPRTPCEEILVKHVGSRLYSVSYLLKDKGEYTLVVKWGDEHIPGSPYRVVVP
T3 sequence (P21333 2-2647 limits assumed, one chain of several): as above
Sequence of TLR4/FLNA complexes (P21333 2-2647 limits assumed, one chain of several): as above
T2 sequence (P21333 2-2647 limits assumed, one chain of several): as above

`CN1CCC2(CC1)NCC(=O)N2Cc1ccccc1` [Compound C0105] was tested, and the inhibition at 0.001 µM (α7nAChR-FLNA complex [1]; 1 nM C0105, 30 min, lymphocytes of 20 AD subjects, read-out: Reduction of α7nAChR/FLNA complex level (% inhibition)) was about 50%, the “Effect on amount of α7nAChR-FLNA complexes (in words), pilot study” value (α7nAChR-FLNA complex [1]; 1 nM C0105, Aβ42-treated control and untreated AD lymphocytes) was “decreases the amount of α7nAChR-FLNA complexes” and the “Effect on α7nAChR/FLNA complex level (in words)” value (α7nAChR-FLNA complex [1]; [3]) was “no discernible effect”. For the same compound, the “Reduction of α7nAChR/Aβ42 complex level (% inhibition)” value (Aβ42-α7nAChR complex; 1 nM C0105, 30 min, lymphocytes of 20 AD subjects) was “approximately 50%”, the “Effect on α7nAChR/Aβ42 complex level (in words)” value (Aβ42-α7nAChR complex; [3]) was “no discernible effect” and the “Effect on FLNA-TLR4 association (in words)” value (TLR4-FLNA complex) was “reduce all three associations”. For the same compound, the “Effect on FLNA-α7nAChR association (in words)” value (α7nAChR-FLNA complex [2]) was “reduce all three associations”, the “Decrease in amount of α7nAChR FLNA complexes” value (α7nAChR/FLNA complexes; AD lymphocytes) was “approximately 50%” and the “Response of α7nAChR/FLNA complexes (in words)” value (α7nAChR/FLNA complexes; YCI lymphocytes) was “essentially non-responsive”. The “Effect on Aβ42-induced α7nAChR-FLNA association (in words)” value (α7nAChR-FLNA association) was “reduce α7nAChR-FLNA association”, the “Decrease in amount of TLR4 FLNA complexes” value (TLR4/FLNA complexes; AD lymphocytes) was “approximately 50%” and the “Response of TLR4/FLNA complexes (in words)” value (TLR4/FLNA complexes; YCI lymphocytes) was “essentially non-responsive”.
